Results reported in patent US6884820B2, “5,6,7,8-tetrahydronaphthalen-2-yl-7-fluoroalkyl-heptatrienoic acid derivatives having serum glucose reducing activity” (Allergan, Inc., priority 2003, dated 2005).

Key:
RARα = biological target: T1, RARα (Homo sapiens, UniProt P10276); experiment: ligand binding assay, RARα
T1 sequence (P10276 1-462): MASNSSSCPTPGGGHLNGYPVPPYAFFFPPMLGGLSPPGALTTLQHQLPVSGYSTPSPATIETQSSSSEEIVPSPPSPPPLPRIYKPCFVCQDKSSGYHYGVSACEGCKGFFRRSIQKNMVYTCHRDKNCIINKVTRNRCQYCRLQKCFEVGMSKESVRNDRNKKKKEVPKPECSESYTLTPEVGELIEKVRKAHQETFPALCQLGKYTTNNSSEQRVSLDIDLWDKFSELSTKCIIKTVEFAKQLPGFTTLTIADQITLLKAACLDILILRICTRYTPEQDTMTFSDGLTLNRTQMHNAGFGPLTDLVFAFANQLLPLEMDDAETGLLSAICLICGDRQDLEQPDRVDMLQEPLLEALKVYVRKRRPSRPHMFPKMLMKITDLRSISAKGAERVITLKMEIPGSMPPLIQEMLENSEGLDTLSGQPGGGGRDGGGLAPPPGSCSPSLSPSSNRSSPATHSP

RARβ [1] = biological target: T2, RARβ (Homo sapiens, UniProt P10826); experiment: ligand binding assay, RARβ
T2 sequence (P10826 1-455): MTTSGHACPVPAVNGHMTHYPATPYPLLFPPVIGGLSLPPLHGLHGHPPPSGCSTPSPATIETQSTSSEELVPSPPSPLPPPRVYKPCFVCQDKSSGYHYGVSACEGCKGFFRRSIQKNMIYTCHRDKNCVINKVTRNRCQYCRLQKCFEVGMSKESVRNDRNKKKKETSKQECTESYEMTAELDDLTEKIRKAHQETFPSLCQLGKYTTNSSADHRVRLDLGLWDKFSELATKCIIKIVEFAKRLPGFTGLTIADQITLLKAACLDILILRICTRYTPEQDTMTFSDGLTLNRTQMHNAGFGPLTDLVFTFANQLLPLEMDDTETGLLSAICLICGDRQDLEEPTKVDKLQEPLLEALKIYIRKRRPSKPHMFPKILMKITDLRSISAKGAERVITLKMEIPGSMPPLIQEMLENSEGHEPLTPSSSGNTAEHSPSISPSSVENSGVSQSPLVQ

RARγ [2] = biological target: T3, RARγ (Homo sapiens, UniProt P13631); experiment: ligand binding assay, RARγ
T3 sequence (P13631 1-454): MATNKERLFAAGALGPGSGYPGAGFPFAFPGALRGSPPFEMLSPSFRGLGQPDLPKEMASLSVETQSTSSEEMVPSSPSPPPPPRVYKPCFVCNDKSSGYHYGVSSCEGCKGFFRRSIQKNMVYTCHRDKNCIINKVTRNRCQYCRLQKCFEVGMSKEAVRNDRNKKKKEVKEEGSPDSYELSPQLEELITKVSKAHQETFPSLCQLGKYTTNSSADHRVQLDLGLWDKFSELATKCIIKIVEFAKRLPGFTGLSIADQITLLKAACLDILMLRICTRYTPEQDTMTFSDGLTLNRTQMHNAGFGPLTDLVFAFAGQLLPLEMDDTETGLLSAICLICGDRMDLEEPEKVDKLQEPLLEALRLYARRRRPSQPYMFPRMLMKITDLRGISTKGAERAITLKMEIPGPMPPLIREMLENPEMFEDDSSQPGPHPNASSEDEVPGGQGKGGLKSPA

RXRα [3] = biological target: T4, RXRα (Homo sapiens, UniProt P19793); experiment: ligand binding assay, RXRα
T4 sequence (P19793 1-462): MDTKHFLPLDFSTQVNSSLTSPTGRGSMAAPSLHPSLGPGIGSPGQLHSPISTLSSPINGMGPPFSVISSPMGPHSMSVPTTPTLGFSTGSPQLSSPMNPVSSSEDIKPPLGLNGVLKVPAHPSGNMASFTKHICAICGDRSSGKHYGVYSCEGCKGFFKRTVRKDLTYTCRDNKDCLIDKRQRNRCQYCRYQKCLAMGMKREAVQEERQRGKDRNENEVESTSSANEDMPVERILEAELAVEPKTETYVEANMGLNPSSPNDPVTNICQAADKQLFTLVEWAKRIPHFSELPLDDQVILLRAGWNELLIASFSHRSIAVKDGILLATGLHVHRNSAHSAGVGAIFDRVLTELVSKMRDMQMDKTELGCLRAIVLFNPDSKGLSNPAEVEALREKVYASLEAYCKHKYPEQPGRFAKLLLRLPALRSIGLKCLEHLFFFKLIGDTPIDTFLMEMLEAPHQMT

RXRβ [4] = biological target: T5, RXRβ (Homo sapiens, UniProt P28702); experiment: ligand binding assay, RXRβ
T5 sequence (P28702 1-533): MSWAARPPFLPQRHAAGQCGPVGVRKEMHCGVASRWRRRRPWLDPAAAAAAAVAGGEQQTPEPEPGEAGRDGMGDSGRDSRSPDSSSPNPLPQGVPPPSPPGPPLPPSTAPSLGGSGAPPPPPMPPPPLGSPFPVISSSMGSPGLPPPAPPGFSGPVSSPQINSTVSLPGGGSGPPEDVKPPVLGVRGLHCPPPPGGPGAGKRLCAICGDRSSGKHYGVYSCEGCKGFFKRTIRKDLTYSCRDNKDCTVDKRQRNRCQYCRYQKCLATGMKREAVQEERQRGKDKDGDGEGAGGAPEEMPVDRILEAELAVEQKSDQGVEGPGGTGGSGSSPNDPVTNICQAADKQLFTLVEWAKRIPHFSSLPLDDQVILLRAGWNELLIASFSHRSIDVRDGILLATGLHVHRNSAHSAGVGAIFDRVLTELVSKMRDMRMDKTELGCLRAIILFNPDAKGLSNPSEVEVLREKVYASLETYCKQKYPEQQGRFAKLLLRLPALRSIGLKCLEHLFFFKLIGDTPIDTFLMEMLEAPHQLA

RXRα [5] = biological target: T4, RXRα; experiment: holoreceptor transactivation assay, RXRα; conditions: for RXR α transactivation efficacy as a percentage compared to the standard compound: value in parentheses, relative to standard compound of U.S. Pat. No. 6,114,533
RXRβ [6] = biological target: T5, RXRβ; experiment: holoreceptor transactivation assay, RXRβ; conditions: for RXR β transactivation efficacy as a percentage compared to the standard compound: value in parentheses, relative to standard compound of U.S. Pat. No. 6,114,533
RXRγ = biological target: T6, RXRγ (Homo sapiens, UniProt P48443); experiment: holoreceptor transactivation assay, RXRγ; conditions: for RXR γ transactivation efficacy as a percentage compared to the standard compound: value in parentheses, relative to standard compound of U.S. Pat. No. 6,114,533
T6 sequence (P48443 1-463): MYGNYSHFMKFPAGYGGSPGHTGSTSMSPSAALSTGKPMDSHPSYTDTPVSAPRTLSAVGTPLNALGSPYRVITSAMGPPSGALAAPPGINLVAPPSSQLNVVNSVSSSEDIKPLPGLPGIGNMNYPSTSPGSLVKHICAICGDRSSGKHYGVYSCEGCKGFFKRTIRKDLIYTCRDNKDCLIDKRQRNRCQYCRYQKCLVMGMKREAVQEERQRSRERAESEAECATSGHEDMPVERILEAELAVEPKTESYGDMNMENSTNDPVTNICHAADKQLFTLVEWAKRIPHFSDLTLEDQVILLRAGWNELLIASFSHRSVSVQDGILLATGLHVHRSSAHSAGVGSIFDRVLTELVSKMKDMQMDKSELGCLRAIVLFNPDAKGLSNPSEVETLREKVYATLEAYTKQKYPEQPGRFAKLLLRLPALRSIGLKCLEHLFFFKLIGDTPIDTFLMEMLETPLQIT

RARβ [7] = biological target: T7, RARβ (Homo sapiens, UniProt P10826); experiment: chimeric receptor transactivation assay, RARβ; conditions: for RAR β transactivation efficacy as a percentage compared to the standard compound: value in parentheses, relative to standard compound of U.S. Pat. No. 6,114,533
T7 sequence (P10826 183-417 limits assumed): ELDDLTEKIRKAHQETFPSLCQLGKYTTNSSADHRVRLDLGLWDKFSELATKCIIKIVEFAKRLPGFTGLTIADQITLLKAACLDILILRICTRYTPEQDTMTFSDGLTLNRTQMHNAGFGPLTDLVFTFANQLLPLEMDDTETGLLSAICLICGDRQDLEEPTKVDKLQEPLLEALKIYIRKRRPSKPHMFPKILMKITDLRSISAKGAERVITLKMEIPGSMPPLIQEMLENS

RARγ [8] = biological target: T8, RARγ (Homo sapiens, UniProt P13631); experiment: chimeric receptor transactivation assay, RARγ
T8 sequence (P13631 185-419 limits assumed): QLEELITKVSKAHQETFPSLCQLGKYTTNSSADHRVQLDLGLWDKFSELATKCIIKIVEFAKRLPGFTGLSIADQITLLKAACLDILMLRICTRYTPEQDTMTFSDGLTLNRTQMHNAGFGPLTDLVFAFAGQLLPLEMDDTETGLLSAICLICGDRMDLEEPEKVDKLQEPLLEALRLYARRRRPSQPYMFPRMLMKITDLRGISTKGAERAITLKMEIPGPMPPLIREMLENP

[9] = test system: Female diabetic db/db mice; experiment: serum glucose, triglyceride and thyroxine levels in female db/db mice; conditions: for Glucose Day 0 / Triglycerides Day 0: Day 0 (pre-treatment), female db/db mice, group later given standard compound 5 mg/kg or Compound 6 50 mg/kg by oral gavage; for Glucose Day 3, 3 h / Triglycerides Day 3, 3 h / Glucose Day 6, 3 h: oral gavage daily
[10] = standard compound 5 mg/kg, Compound 6 50 mg/kg

| Ki (RARα) | Ki (RARβ [1]) | Ki (RARγ [2]) | Ki (RXRα [3]) | Ki (RXRβ [4]) | EC50 (RXRα [5]) | RXR α transactivation efficacy as a percentage compared to the standard compound (RXRα [5]) | EC50 (RXRβ [6]) | RXR β transactivation efficacy as a percentage compared to the standard compound (RXRβ [6]) | EC50 (RXRγ) | RXR γ transactivation efficacy as a percentage compared to the standard compound (RXRγ) | EC50 (RARβ [7]) | RAR β transactivation efficacy as a percentage compared to the standard compound (RARβ [7]) | SMILES | Glucose Day 0 [9] | Triglycerides Day 0 [9] | Glucose Day 3, 3 h [9, 10] | Triglycerides Day 3, 3 h [9, 10] | Glucose Day 6, 3 h [9, 10] | also measured |
| --- | --- | --- | --- | --- | --- | --- | --- | --- | --- | --- | --- | --- | --- | --- | --- | --- | --- | --- | --- |
| 504 nM | 484 nM | 1200 nM | 66 nM | 423 nM | 0.6 nM | 112% | 5 nM | 111% | 2 nM | 121% | 150 nM | 32% | COc1cc2c(cc1C(=C/C=C/C(C)=C/C(=O)O)C(F)(F)F)C(C)(C)CCC2(C)C (stereo in doubt) [Compound 5, (2E,4E,6Z)-8,8,8-Trifluoro-7-(3-methoxy-5,5,8,8-tetramethyl-5,6,7,8-tetrahydro-naphthalen-2-yl)-3-methyl-octa-2,4,6-trienoic acid] |  |  |  |  |  |  |
| 1800 nM | 452 nM | > 10000 nM | 22 nM | 115 nM |  |  |  |  |  |  | 54 nM | 9% | CCCOc1cc2c(cc1C(=C/C=C/C(C)=C/C(=O)O)C(F)(F)F)C(C)(C)CCC2(C)C (stereo in doubt) [Compound 7, (2E,4E,6Z)-8,8,8-Trifluoro-3-methyl-7-(5,5,8,8-tetramethyl-3-propoxy-5,6,7,8-tetrahydro-naphthalen-2-yl)-octa-2,4,6-trienoic acid] |  |  |  |  |  |  |
| > 10000 nM | 372 nM | > 10000 nM | 14 nM | 68 nM | 10 nM | 17% | 97 nM | 30% | 25 nM | 17% | 67 nM | 15% | CCOc1cc2c(cc1\C(=C/C=C/C(C)=C/C(=O)O)C(F)(F)F)C(C)(C)CCC2(C)C [Compound 6, (2E,4E,6Z)-7-(3-Ethoxy-5,5,8,8-tetramethyl-5,6,7 8-tetrahydro-naphthalen-2-yl)-8,8,8-trifluoro-3-methyl-octa-2,4,6-trienoic acid] | 561 ± 159 mg/dL | 350 ± 69 mg/dL | 442 ± 164 mg/dL | 240 ± 192 mg/dL | 483 ± 175 mg/dL |  |
|  |  |  |  |  |  |  |  |  |  |  |  |  | CC(/C=C/[C@@H]1C[C@]1(C)c1ccc2c(c1)C(C)(C)CCC2(C)C)=C\C(=O)O [Standard compound] | 526 ± 135 mg/dL | 290 ± 55 mg/dL | 444 ± 125 mg/dL | 590 ± 422 mg/dL | 399 ± 128 mg/dL | T4 Day 7 ([9]; Day 7, oral gavage daily for seven days, standard compound 5 mg/kg, Compound 6 50 mg/kg): 1.5 ± 0.6 µg/dL; effect on serum thyroxine levels ([9]; diabetic mammals): reducing serum thyroxine levels |

| SMILES | Ki (RARα) | Ki (RARβ [1]) | Ki (RARγ [2]) | Ki (RXRα [3]) | Ki (RXRβ [4]) | EC50 (RXRα [5]) | RXR α transactivation efficacy as a percentage compared to the standard compound (RXRα [5]) | EC50 (RXRβ [6]) | RXR β transactivation efficacy as a percentage compared to the standard compound (RXRβ [6]) | EC50 (RXRγ) | RXR γ transactivation efficacy as a percentage compared to the standard compound (RXRγ) | EC50 (RARβ [7]) | RAR β transactivation efficacy as a percentage compared to the standard compound (RARβ [7]) | Glucose Day 0 [9] | Triglycerides Day 0 [9] | Glucose Day 3, 3 h [9, 10] | Triglycerides Day 3, 3 h [9, 10] | Glucose Day 6, 3 h [9, 10] | also measured |
| --- | --- | --- | --- | --- | --- | --- | --- | --- | --- | --- | --- | --- | --- | --- | --- | --- | --- | --- | --- |
| CC(/C=C/C=C(c1cc2c(cc1O)C(C)(C)CCC2(C)C)C(F)(F)F)=C\C(=O)O (stereo in doubt) [Compound 4, (2E,4E,6Z)-8,8,8-Trifluoro-7-(3-hydroxy-5,5,8,8-tetramethyl-5,6,7,8-tetrahydro-naphthalen-2-yl)-3-methyl-octa-2,4,6-trienoic acid] | 2400 nM | 4400 nM | 496 nM | 471 nM | 2600 nM | 9 nM | 65% | 67 nM | 54% | 16 nM | 69% | > 500 nM | ~30% |  |  |  |  |  | EC50 (RARγ [8]): > 500 nM; RAR γ transactivation efficacy as a percentage compared to the standard compound (RARγ [8]; value in parentheses, relative to standard compound of U.S. Pat. No. 6,114,533): ~30% |
